Read-outs that look alike come from different tables or passages of the source. Where only a bound is given, the exact number is not on record here.

In this assay the target is T1, IRAK4 (Homo sapiens, UniProt Q9NWZ3).
T1 construct: Degradation of IRAK4 in OCI-LY10 was quantitatively measured using Meso Scale Discovery technology; endogenous in cells; host or cells: OCI-LY10
T1 sequence (Q9NWZ3 1-460): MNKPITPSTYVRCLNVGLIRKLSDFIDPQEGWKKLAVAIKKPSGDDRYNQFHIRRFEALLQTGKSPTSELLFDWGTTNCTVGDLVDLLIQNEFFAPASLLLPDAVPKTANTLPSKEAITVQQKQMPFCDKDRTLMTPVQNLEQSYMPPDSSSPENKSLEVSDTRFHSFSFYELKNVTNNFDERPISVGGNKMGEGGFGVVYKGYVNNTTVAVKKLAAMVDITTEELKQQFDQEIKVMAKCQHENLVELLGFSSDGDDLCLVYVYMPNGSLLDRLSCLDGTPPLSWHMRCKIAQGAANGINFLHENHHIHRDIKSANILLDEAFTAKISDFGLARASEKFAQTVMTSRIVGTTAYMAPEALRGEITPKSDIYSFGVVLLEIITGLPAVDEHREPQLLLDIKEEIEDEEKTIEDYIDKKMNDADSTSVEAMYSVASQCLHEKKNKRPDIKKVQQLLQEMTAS
Put plainly: IRAK4 MSD Degradation in OCI-LY10. To be noted: OCI-LY10 cells, MSD. The assay is classed as cell-based. A digest of the protocol:
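OCI-LY10 cells exposed to 8-point 1:3 compound series (top 1 to 10 μM) for 4 to 24 h at 37 °C, 5% CO2. Lysate IRAK4 quantified by MSD sandwich immunoassay. DC50 from three-parameter logistic fit, binned A (<0.01 μM) to D (>0.2 μM or not tested).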

Setting [1] is: 4 hrs incubation, read-out: IRAK4 degradation in OCI-LY10 at 4 hrs: DC50.
[2] abbreviates: 24 hrs incubation, read-out: IRAK4 degradation in OCI-LY10 at 24 hrs: DC50.

As a reminder, the DC50 is the midpoint of the concentration-degradation curve. Regarding `Cc1cccc(C(=O)Nc2cc3cn([C@H]4CC[C@H](CN5CC[C@@H](c6cccc7c6n(C)c(=O)n7C6CCC(=O)NC6=O)[C@H](F)C5)CC4)nc3cc2C(C)(C)O)n1` (stereo partly shown) [I-645], the 50% degradation concentration (DC50) is greater than 200 nM under setting [1] and less than 10 nM under setting [2].
Turning to `Cc1cccc(C(=O)Nc2cc3cn([C@H]4CC[C@H](CN5CC[C@H](c6cccc7c6n(C)c(=O)n7C6CCC(=O)NC6=O)[C@@H](F)C5)CC4)nc3cc2C(C)(C)O)n1` (stereo partly shown) [I-646], the DC50 under setting [1] is greater than 200 nM and the DC50 under setting [2] was greater than 200 nM.
With `Cc1cccc(C(=O)Nc2cc3cn([C@H]4CC[C@H](CN5CC[C@H](c6cccc7c6n(C)c(=O)n7C6CCC(=O)NC6=O)[C@H](F)C5)CC4)nc3cc2C(C)(C)O)n1` (stereo partly shown) [I-647], the half-maximal degradation concentration (DC50) was greater than 200 nM under setting [1] and greater than 200 nM under setting [2].
In the case of `Cn1c(=O)n(C2CCC(=O)NC2=O)c2cccc([C@@H]3CCN(C[C@H]4CC[C@H](n5cc6cc(NC(=O)c7cccc(C#N)n7)c(C(C)(C)O)cc6n5)CC4)C[C@@H]3F)c21` (stereo partly shown) [I-648], the half-maximal degradation concentration (DC50) is greater than 200 nM under setting [1] and greater than 200 nM under setting [2].
With `Cn1c(=O)n(C2CCC(=O)NC2=O)c2cccc([C@@H]3CCN(C[C@H]4CC[C@H](n5cc6cc(NC(=O)c7cccc(C#N)n7)c(C(C)(C)O)cc6n5)CC4)C[C@H]3F)c21` (stereo partly shown) [I-649], the 50% degradation concentration (DC50) was greater than 200 nM under setting [1] and less than 10 nM under setting [2].
As for `Cn1c(=O)n(C2CCC(=O)NC2=O)c2cccc([C@H]3CCN(C[C@H]4CC[C@H](n5cc6cc(NC(=O)c7cccc(C#N)n7)c(C(C)(C)O)cc6n5)CC4)C[C@@H]3F)c21` (stereo partly shown) [I-650], the DC50 was greater than 200 nM under setting [1] and greater than 200 nM under setting [2].
Regarding `Cn1c(=O)n(C2CCC(=O)NC2=O)c2cccc([C@H]3CCN(C[C@H]4CC[C@H](n5cc6cc(NC(=O)c7cccc(C#N)n7)c(C(C)(C)O)cc6n5)CC4)C[C@H]3F)c21` (stereo partly shown) [I-651], the DC50 was greater than 200 nM under setting [1] and greater than 200 nM under setting [2].
`Cn1c(=O)n(C2CCC(=O)NC2=O)c2cccc(C3CCN(C[C@H]4CC[C@H](n5cc6cc(NC(=O)c7cccc(C(F)F)n7)c(C(C)(C)O)cc6n5)CC4)C[C@@H]3F)c21` (stereo partly shown) [I-652]: the DC50 under setting [1] was greater than 200 nM and the DC50 under setting [2] was greater than 200 nM.
`Cn1c(=O)n(C2CCC(=O)NC2=O)c2cccc([C@@H]3CCN(C[C@H]4CC[C@H](n5cc6cc(NC(=O)c7cccc(C(F)F)n7)c(C(C)(C)O)cc6n5)CC4)C[C@H]3F)c21` (stereo partly shown) [I-653]: the DC50 was greater than 200 nM under setting [1] and less than 10 nM under setting [2].
On to `Cn1c(=O)n(C2CCC(=O)NC2=O)c2cccc([C@H]3CCN(C[C@H]4CC[C@H](n5cc6cc(NC(=O)c7cccc(C(F)F)n7)c(C(C)(C)O)cc6n5)CC4)C[C@@H]3F)c21` (stereo partly shown) [I-654], for which the DC50 under setting [1] was greater than 200 nM and the DC50 under setting [2] is greater than 200 nM.
Turning to `Cn1c(=O)n(C2CCC(=O)NC2=O)c2cccc([C@H]3CCN(C[C@H]4CC[C@H](n5cc6cc(NC(=O)c7cccc(C(F)F)n7)c(C(C)(C)O)cc6n5)CC4)C[C@H]3F)c21` (stereo partly shown) [I-655], the half-maximal degradation concentration (DC50) is greater than 200 nM under setting [1] and greater than 200 nM under setting [2].
Regarding `Cn1c(=O)n(C2CCC(=O)NC2=O)c2cccc([C@H]3CCN(C[C@H]4CC[C@H](n5cc6cc(NC(=O)c7cccc(C(F)(F)F)n7)ncc6n5)CC4)C[C@@H]3F)c21` (stereo partly shown) [I-657], the half-maximal degradation concentration (DC50) was greater than 200 nM under setting [1] and greater than 200 nM under setting [2].
Regarding `Cn1c(=O)n(C2CCC(=O)NC2=O)c2cccc(N3CCN(CC4COC5(C4)CN(C[C@H]4CC[C@H](n6cc(NC(=O)c7cnn8ccc(N9C[C@H]%10C[C@@H]9CO%10)nc78)c(C(F)F)n6)CC4)C5)CC3)c21` (stereo partly shown) [I-660], the DC50 was greater than 200 nM under setting [1] and less than 10 nM under setting [2].
`Cn1c(=O)n(C2CCC(=O)NC2=O)c2cccc(N3CCN(CC4COC5(C4)CN(C[C@H]4CC[C@H](n6cc7cc(NC(=O)c8cccc(C(F)(F)F)n8)ccc7n6)CC4)C5)CC3)c21` (stereo partly shown) [I-661]: the DC50 is greater than 200 nM under setting [1] and greater than 200 nM under setting [2].
Consider `Cn1c(=O)n(C2CCC(=O)NC2=O)c2cccc(N3CCN(CC4COC5(C4)CN(C[C@H]4CC[C@H](n6cc7cc(NC(=O)c8cccc(C(F)(F)F)n8)ncc7n6)CC4)C5)CC3)c21` (stereo partly shown) [I-662], for which the DC50 by setting is: under setting [1], greater than 200 nM; under setting [2], greater than 200 nM.
As for `Cn1c(=O)n(C2CCC(=O)NC2=O)c2cccc(N3CCN(CC4COC5(C4)CN(C[C@H]4CC[C@H](n6cc7cc(NC(=O)c8cccc(C(F)(F)F)n8)c(C(C)(C)O)cc7n6)CC4)C5)CC3)c21` (stereo partly shown) [I-663], the half-maximal degradation concentration (DC50) is, setting by setting: under setting [1], greater than 200 nM; under setting [2], greater than 200 nM.
As to `Cn1c(=O)n(C2CCC(=O)NC2=O)c2cccc(C3CCN(CC4COC5(C4)CN(C[C@H]4CC[C@H](n6cc(NC(=O)c7cnn8ccc(N9C[C@H]%10C[C@@H]9CO%10)nc78)c(C(F)F)n6)CC4)C5)CC3)c21` (stereo partly shown) [I-664], the 50% degradation concentration (DC50) was greater than 200 nM under setting [1] and greater than 200 nM under setting [2].
As for `Cn1c(=O)n(C2CCC(=O)NC2=O)c2cccc(N3CCN(CC4COC5(C4)CN(C[C@H]4CC[C@H](n6cc7cc(NC(=O)c8cccc(C(F)(F)F)n8)ccc7n6)CC4)C5)CC3)c21` (stereo partly shown) [I-665], the half-maximal degradation concentration (DC50) under setting [1] is greater than 200 nM.
For `Cn1c(=O)n(C2CCC(=O)NC2=O)c2cccc(N3CCN(CC4COC5(C4)CN(C[C@H]4CC[C@H](n6cc7cc(NC(=O)c8cccc(C(F)(F)F)n8)ncc7n6)CC4)C5)CC3)c21` (stereo partly shown) [I-666], the DC50 under setting [1] was greater than 200 nM.
In the case of `Cn1c(=O)n(C2CCC(=O)NC2=O)c2cccc(C3CCN(CC4COC5(C4)CN(C[C@H]4CC[C@H](n6cc7cc(NC(=O)c8cccc(C(F)(F)F)n8)c(C(C)(C)O)cc7n6)CC4)C5)CC3)c21` (stereo partly shown) [I-667], the 50% degradation concentration (DC50) runs as follows: under setting [1], greater than 200 nM; under setting [2], greater than 200 nM.
Consider `Cn1c(=O)n(C2CCC(=O)NC2=O)c2cccc(N3CC4(CCN(C[C@H]5CC[C@H](n6cc7cc(NC(=O)c8cccc(C(F)(F)F)n8)ncc7n6)CC5)CC4(F)F)C3)c21` (stereo partly shown) [I-668], for which the half-maximal degradation concentration (DC50) is greater than 200 nM under setting [1] and 10 to 100 nM under setting [2].
For `Cn1c(=O)n(C2CCC(=O)NC2=O)c2cccc(N3CC4(CCN(C[C@H]5CC[C@H](n6cc(NC(=O)c7cnn8ccc(N9C[C@H]%10C[C@@H]9CO%10)nc78)c(C(F)F)n6)CC5)CC4(F)F)C3)c21` (stereo partly shown) [I-669] the same measures were greater than 200 nM and less than 10 nM.
As to `Cn1c(=O)n(C2CCC(=O)NC2=O)c2cccc(OC3CC(N4CCN(C[C@H]5CC[C@H](n6cc(NC(=O)c7cnn8ccc(N9C[C@H]%10C[C@@H]9CO%10)nc78)c(C(F)F)n6)CC5)CC4)C3)c21` (stereo partly shown) [I-670], the DC50 under setting [1] is greater than 200 nM and the DC50 under setting [2] is less than 10 nM.
The like results for `Cn1c(=O)n(C2CCC(=O)NC2=O)c2cccc(C3CN([C@H]4CCN(C[C@H]5CC[C@H](n6cc7cc(NC(=O)c8cccc(C(F)(F)F)n8)ccc7n6)CC5)C[C@@H]4F)C3)c21` (stereo partly shown) [I-671] were, in that order, greater than 200 nM and less than 10 nM.
With `Cn1c(=O)n(C2CCC(=O)NC2=O)c2cccc(C3CN([C@H]4CCN(C[C@H]5CC[C@H](n6cc7cc(NC(=O)c8cccc(C(F)(F)F)n8)ncc7n6)CC5)C[C@@H]4F)C3)c21` (stereo partly shown) [I-672], the half-maximal degradation concentration (DC50) under setting [1] was greater than 200 nM and the DC50 under setting [2] is less than 10 nM.
For `Cn1c(=O)n(C2CCC(=O)NC2=O)c2cccc(C3CN([C@@H]4CCN(C[C@H]5CC[C@H](n6cc(NC(=O)c7cnn8ccc(N9C[C@H]%10C[C@@H]9CO%10)nc78)c(C(F)F)n6)CC5)C[C@@H]4F)C3)c21` (stereo partly shown) [I-673] the same measures were greater than 200 nM and less than 10 nM.
Turning to `C[C@H]1CN(c2ccn3ncc(C(=O)Nc4cn([C@H]5CC[C@H](CN6CCN(CC7CN(c8cccc9c8n(C)c(=O)n9C8CCC(=O)NC8=O)C7)CC6)CC5)nc4C(F)F)c3n2)CCO1` (stereo partly shown) [I-674], the DC50 under setting [1] was greater than 200 nM and the DC50 under setting [2] was less than 10 nM.

Values taken from patent US12091411B2, “IRAK degraders and uses thereof” (Kymera Therapeutics, Inc., priority 2022, dated 2024).
